# In patent US10597399B2, “Substituted triazolopiperazine PARP inhibitor, preparation method therefor and use thereof” (Shanghai Institute of Materia Medica, Chinese Academy of …, priority 2015, dated 2020):
# What was measured:
# [1] = tested on: Capan-1 cells (BRCA2 gene defect); test: Inhibition of proliferation of Capan-1 cells (CCK-8 and SRB method); details: Homo sapiens, CAPAN-1, read-out: Cellular IC50 (nM) Capan-1 (BRCA2gene defect)
# [2] = tested on: MDA-MB-436 cells (BRCA1 gene defect); test: Inhibition of proliferation of MDA-MB-436 cells (CCK-8 and SRB method); details: Homo sapiens, MDA-MB-436, read-out: Cellular IC50 (nM) MDA-MB-436 (BRCA1gene defect)
# [3] = tested on: Capan-1/AZD2281 drug resistant cell; test: cells; details: Homo sapiens
# HCT-15 (colon cancer) = test: Proliferation of different tumor cells: HCT-15; details: for IC50: Homo sapiens
# SW-620 (colon cancer) = test: Proliferation of different tumor cells: SW-620; details: for IC50: Homo sapiens
# [4] = tested on: Capan-1 (pancreatic cancer); test: Proliferation of different tumor cells: Capan-1; details: Homo sapiens
# HCC-1937 (breast cancer) = test: Proliferation of different tumor cells: HCC-1937; details: for IC50: Homo sapiens, HCC1937
# [5] = tested on: UWB1.289 (ovarian cancer); test: Proliferation of different tumor cells: UWB1.289; details: for IC50: UWB1289
# Capan-1 parental cell = test: Anti-proliferative effect on Capan-1 parental cell; details: Homo sapiens
# [6] = background statement; cited from earlier work
# PARP-1 = PARP-1 (Homo sapiens (Human), UniProt P09874); details: PARP-1 enzyme
# PARP-1, sequence (P09874 whole entry): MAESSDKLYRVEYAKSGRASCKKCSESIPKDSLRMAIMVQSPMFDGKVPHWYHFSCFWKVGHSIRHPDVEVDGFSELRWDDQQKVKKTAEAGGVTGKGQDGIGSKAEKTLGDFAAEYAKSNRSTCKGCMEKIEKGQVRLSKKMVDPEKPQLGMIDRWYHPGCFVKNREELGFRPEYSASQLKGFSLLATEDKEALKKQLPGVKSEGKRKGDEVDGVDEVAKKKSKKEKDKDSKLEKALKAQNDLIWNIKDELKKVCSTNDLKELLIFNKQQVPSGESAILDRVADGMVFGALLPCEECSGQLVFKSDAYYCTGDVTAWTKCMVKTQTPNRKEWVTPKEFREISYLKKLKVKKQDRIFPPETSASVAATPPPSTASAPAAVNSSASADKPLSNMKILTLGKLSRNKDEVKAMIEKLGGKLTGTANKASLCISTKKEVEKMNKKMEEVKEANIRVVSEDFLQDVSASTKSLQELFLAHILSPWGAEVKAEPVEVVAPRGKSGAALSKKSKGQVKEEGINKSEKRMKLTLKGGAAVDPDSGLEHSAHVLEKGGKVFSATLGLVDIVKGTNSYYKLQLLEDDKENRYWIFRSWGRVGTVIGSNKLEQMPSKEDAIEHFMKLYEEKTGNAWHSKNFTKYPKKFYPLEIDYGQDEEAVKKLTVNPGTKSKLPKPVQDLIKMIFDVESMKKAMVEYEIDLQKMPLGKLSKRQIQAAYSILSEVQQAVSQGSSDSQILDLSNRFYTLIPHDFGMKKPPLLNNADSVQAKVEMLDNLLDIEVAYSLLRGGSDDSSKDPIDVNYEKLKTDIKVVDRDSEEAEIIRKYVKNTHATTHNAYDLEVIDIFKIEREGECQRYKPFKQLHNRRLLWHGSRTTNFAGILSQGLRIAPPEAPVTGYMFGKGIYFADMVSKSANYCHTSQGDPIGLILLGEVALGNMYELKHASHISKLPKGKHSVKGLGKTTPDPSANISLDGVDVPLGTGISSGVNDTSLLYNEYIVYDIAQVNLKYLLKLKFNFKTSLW
SMILES,IC50 [1],IC50 [2],also measured
CC1CN(C(=O)c2cc(Cc3n[nH]c(=O)c4ccccc34)ccc2F)Cc2nnc(-c3c[nH]cn3)n21 (stereo not drawn) [Compound S8],< 20 nM,< 20 nM,–
CC1CN(C(=O)c2cc(Cc3n[nH]c(=O)c4ccccc34)ccc2F)Cc2nnc(-c3ncc[nH]3)n21 (stereo not drawn) [Compound S9],< 20 nM,< 5 nM,–
CC1CN(C(=O)c2cc(Cc3n[nH]c(=O)c4ccccc34)ccc2F)Cc2nnc(-c3cccs3)n21 (stereo not drawn) [Compound S7],< 5 nM,< 5 nM,–
CC1CN(C(=O)c2cc(Cc3n[nH]c(=O)c4ccccc34)ccc2F)Cc2nnc(-c3nccn3C)n21 (stereo not drawn) [Compound S10],< 20 nM,< 20 nM,–
CC1CN(C(=O)c2cc(Cc3n[nH]c(=O)c4ccccc34)ccc2F)Cc2nnc(-c3ccccn3)n21 (stereo not drawn) [Compound S13],< 5 nM,< 5 nM,IC50 [3]: < 0.256 nM; Ratio IC50 AZD/IC50 S13 (HCT-15 (colon cancer)): 70; IC50 (HCT-15 (colon cancer)): 143 nM; Ratio IC50 AZD/IC50 S13 (SW-620 (colon cancer)): 130; IC50 (SW-620 (colon cancer)): 45 nM; IC50 [4]: 1.04 nM; Ratio IC50 AZD/IC50 S13 (HCC-1937 (breast cancer); HCC-1937): 338; IC50 (HCC-1937 (breast cancer)): 21.9 nM; Ratio IC50 AZD/IC50 S13 ([5]; UWB1.289): 59; IC50 [5]: 3 nM; IC50 (Capan-1 parental cell): < 0.256 nM
"O=C(c1cc(Cc2n[nH]c(=O)c3ccccc23)ccc1F)N1CCN(C(=O)C2CC2)CC1 [AZD2281, olaparib, reference compound]",~500 nM,~200 nM,IC50 [3]: 41100 ± 1590 nM; bioavailability [6]: < 15%; in vivo action time and half-life time [6]: < 1 h; IC50 (HCT-15 (colon cancer)): > 10000 nM; IC50 (SW-620 (colon cancer)): 5840 nM; IC50 [4]: 653 nM; IC50 (HCC-1937 (breast cancer)): 7390 nM; IC50 [5]: 177 nM; IC50 (Capan-1 parental cell): 2899 ± 17 nM
CC1CN(C(=O)c2cc(Cc3n[nH]c(=O)c4ccccc34)ccc2F)Cc2nnc(-c3nccs3)n21 (stereo not drawn) [Compound S15],< 5 nM,< 5 nM,–
CC1CN(C(=O)c2cc(Cc3n[nH]c(=O)c4ccccc34)ccc2F)Cc2nnc(-c3ccc(CO)o3)n21 (stereo not drawn) [Compound S18],< 5 nM,< 5 nM,–
CC1CN(C(=O)c2cc(Cc3n[nH]c(=O)c4ccccc34)ccc2F)Cc2nnc(-c3ncccc3F)n21 (stereo not drawn) [Compound S33],< 20 nM,< 20 nM,–
CC1CN(C(=O)c2cc(Cc3n[nH]c(=O)c4ccccc34)ccc2F)Cc2nnc(-c3cnn(C)c3)n21 (stereo not drawn) [Compound S14],< 20 nM,< 20 nM,–
CC1CN(C(=O)c2cc(Cc3n[nH]c(=O)c4ccccc34)ccc2F)Cc2nnc(-c3cnccn3)n21 (stereo not drawn) [Compound S20],< 20 nM,< 20 nM,–
CC1CN(C(=O)c2cc(Cc3n[nH]c(=O)c4ccccc34)ccc2F)Cc2nnc(-c3cncs3)n21 (stereo not drawn) [Compound S11],< 20 nM,< 20 nM,–
CC1CN(C(=O)c2cc(Cc3n[nH]c(=O)c4ccccc34)ccc2F)Cc2nnc(-c3ccsc3)n21 (stereo not drawn) [Compound S12],< 20 nM,< 20 nM,–
CC1CN(C(=O)c2cc(Cc3n[nH]c(=O)c4ccccc34)ccc2F)Cc2nnc(C3CCNCC3)n21 (stereo not drawn) [Compound S3],< 200 nM,< 200 nM,–
C[C@@H]1CN(C(=O)c2cc(Cc3n[nH]c(=O)c4ccccc34)ccc2F)Cc2nnc(-c3ccccn3)n21 [S13-(+)],–,–,activity of (+)-S13 relative to (−)-S13 (PARP-1): twice
CC1CN(C(=O)c2cc(Cc3n[nH]c(=O)c4ccccc34)ccc2F)Cc2nnc(-c3ccco3)n21 (stereo not drawn) [Compound S16],< 5 nM,< 5 nM,–
